Among the data in patent US10227323B2, “Glucosylceramide synthase inhibitors for the treatment of diseases” (BIOMARIN PHARMACEUTICAL INC., priority 2013, dated 2019) are IC50 values, retold here.

The experiment deals with T1, GCS (Canis lupus familiaris, UniProt A0A8I3MXG6).
T1 sequence (A0A8I3MXG6 1-394): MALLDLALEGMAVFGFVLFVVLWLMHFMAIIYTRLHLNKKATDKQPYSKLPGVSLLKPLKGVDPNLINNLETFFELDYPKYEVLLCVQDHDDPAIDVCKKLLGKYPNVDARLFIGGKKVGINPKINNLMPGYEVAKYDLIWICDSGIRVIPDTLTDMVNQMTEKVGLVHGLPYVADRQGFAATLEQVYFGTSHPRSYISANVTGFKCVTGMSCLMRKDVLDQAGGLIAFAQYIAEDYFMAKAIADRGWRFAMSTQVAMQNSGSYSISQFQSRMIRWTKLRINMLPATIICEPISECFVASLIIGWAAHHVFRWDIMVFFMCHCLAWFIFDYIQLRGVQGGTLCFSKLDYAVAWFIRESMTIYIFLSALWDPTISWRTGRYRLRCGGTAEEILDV
The experiment can be described thus: Assay 1: GCS Enzymatic Assay (MDCK cell lysate, C6-NBD-Ceramide, LC/MS). It is filed as biochemical, canine. The settings on record: Table 2; data without asterisk; read-out: IC50 (nM) generated from Assay 1. The method in brief:
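LC/MS/MS measurement of glucosylceramide and NBD-ceramide after a 1 h, 37 °C reaction with 100 μM UDP-glucose and 10 μM C6-NBD-ceramide gave IC50s or percent inhibition.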
For the compound `O=C(N[C@H](CN1CCCC1)[C@H](O)c1cc(F)c2c(c1)OCCO2)C(=O)c1ccc2c(cnn2Cc2ccc(F)cc2)c1` [Example 289, N-((1R,2R)-1-(8-fluoro-2,3-dihydrobenzo[b][1,4]dioxin-6-yl)-1-hydroxy-3-(pyrrolidin-1-yl)propan-2-yl)-2-(1-(4-fluorobenzyl)-1H-indazol-5-yl)-2-oxoacetamide], the half-maximal inhibitory concentration (IC50) is less than 50 nM.
The figure for `O=C(N[C@H](CN1CCCC1)[C@H](O)c1cc(F)c2c(c1)OCCO2)C(=O)c1ccc(-c2ccc3oncc3c2)cc1` [Example 290, 2-(4-(benzo[d]isoxazol-5-yl)phenyl)-N-((1R,2R)-1-(8-fluoro-2,3-dihydrobenzo[b][1,4]dioxin-6-yl)-1-hydroxy-3-(pyrrolidin-1-yl)propan-2-yl)-2-oxoacetamide] is less than 50 nM; for `CC(C)(C)Oc1ccc([C@@H](O)[C@@H](CN2CCCC2)NC(=O)C(=O)c2ccc(-c3ccc(F)cc3)cc2)cc1Cl` [Example 291, N-((1R,2R)-1-(4-(tert-butoxy)-3-chlorophenyl)-1-hydroxy-3-(pyrrolidin-1-yl)propan-2-yl)-2-(4′-fluoro-[1,1′-biphenyl]-4-yl)-2-oxoacetamide] it is 50 to 5000 nM.
`O=C(N[C@H](CN1CCCC1)[C@H](O)c1ccc(OC2CC2)c(F)c1)C(=O)c1cc2ccc(Cl)cc2s1` [Example 292, 2-(6-chlorobenzo[b]thiophen-2-yl)-N-((1R,2R)-1-(4-cyclopropoxy-3-fluorophenyl)-1-hydroxy-3-(pyrrolidin-1-yl)propan-2-yl)-2-oxoacetamide]: the IC50 was less than 50 nM.
Consider `CC(C)(C)c1ccc(-c2ccc(C(=O)C(=O)N[C@H](CN3CCC3)[C@H](O)c3cc(F)c4c(c3)OCCO4)cc2)cc1` [Example 293, N-((1R,2R)-3-(azetidin-1-yl)-1-(8-fluoro-2,3-dihydrobenzo[b][1,4]dioxin-6-yl)-1-hydroxypropan-2-yl)-2-(4′-(tert-butyl)-[1,1′-biphenyl]-4-yl)-2-oxoacetamide], for which the half-inhibitory concentration (IC50) was less than 50 nM.
The figure for `CC(C)(C)c1ccc(-c2ccc(C(=O)C(=O)N[C@H](CN3CCCC3)[C@H](O)c3cc(F)c4c(c3)OCCO4)cc2)cc1` [Example 294, 2-(4′-(tert-butyl)-[1,1′-biphenyl]-4-yl)-N-((1R,2R)-1-(8-fluoro-2,3-dihydrobenzo[b][1,4]dioxin-6-yl)-1-hydroxy-3-(pyrrolidin-1-yl)propan-2-yl)-2-oxoacetamide] is less than 50 nM; for `Cc1cc(F)ccc1-c1ccc(C(=O)C(=O)N[C@H](CN2CCCC2)[C@H](O)c2ccc(OC3CC3)c(Cl)c2)cc1` [Example 295, N-((1R,2R)-1-(3-chloro-4-cyclopropoxyphenyl)-1-hydroxy-3-(pyrrolidin-1-yl)propan-2-yl)-2-(4′-fluoro-2′-methyl-[1,1′-biphenyl]-4-yl)-2-oxoacetamide] it is 50 to 5000 nM; for `O=C(N[C@H](CN1CCCC1)[C@H](O)c1ccc(OC2CC2)c(Cl)c1)C(=O)c1ccc(-c2ccc3scnc3c2)cc1` [Example 296, 2-(4-(benzo[d]thiazol-5-yl)phenyl)-N-((1R,2R)-1-(3-chloro-4-cyclopropoxyphenyl)-1-hydroxy-3-(pyrrolidin-1-yl)propan-2-yl)-2-oxoacetamide] it is less than 50 nM.
The figure for `O=C(N[C@H](CN1CCCC1)[C@H](O)c1ccc(OC2CC2)c(Cl)c1)C(=O)c1ccc(-c2ccc3ncsc3c2)cc1` [Example 297, 2-(4-(benzo[d]thiazol-6-yl)phenyl)-N-((1R,2R)-1-(3-chloro-4-cyclopropoxyphenyl)-1-hydroxy-3-(pyrrolidin-1-yl)propan-2-yl)-2-oxoacetamide] is less than 50 nM; for `Cc1cc(C(=O)C(=O)N[C@H](CN2CCCC2)[C@H](O)c2ccc(OC3CC3)c(Cl)c2)ccc1-c1ccc(F)cc1` [Example 298, N-((1R,2R)-1-(3-chloro-4-cyclopropoxyphenyl)-1-hydroxy-3-(pyrrolidin-1-yl)propan-2-yl)-2-(4′-fluoro-2-methyl-[1,1′-biphenyl]-4-yl)-2-oxoacetamide] it is less than 50 nM; for `Cc1cc(C(=O)C(=O)N[C@H](CN2CCCC2)[C@H](O)c2cc(F)c3c(c2)OCCO3)ccc1-c1ccc(F)cc1` [Example 299, N-((1R,2R)-1-(8-fluoro-2,3-dihydrobenzo[b][1,4]dioxin-6-yl)-1-hydroxy-3-(pyrrolidin-1-yl)propan-2-yl)-2-(4′-fluoro-2-methyl-[1,1′-biphenyl]-4-yl)-2-oxoacetamide] it is less than 50 nM.
Regarding `O=C(N[C@H](CN1CCC1)[C@H](O)c1cc(Cl)c2c(c1)OCCO2)C(=O)c1ccc(-c2ccc(F)cc2)cc1` [Example 300, N-((1R,2R)-3-(azetidin-1-yl)-1-(8-chloro-2,3-dihydrobenzo[b][1,4]dioxin-6-yl)-1-hydroxypropan-2-yl)-2-(4′-fluoro-[1,1′-biphenyl]-4-yl)-2-oxoacetamide], the half-maximal inhibitory concentration (IC50) was less than 50 nM.
The value for `N#Cc1ccc(-c2ccc(C(=O)C(=O)N[C@H](CN3CCCC3)[C@H](O)c3ccc(OC4CC4)c(Cl)c3)cc2)cc1` [Example 301, N-((1R,2R)-1-(3-chloro-4-cyclopropoxyphenyl)-1-hydroxy-3-(pyrrolidin-1-yl)propan-2-yl)-2-(4′-cyano-[1,1′-biphenyl]-4-yl)-2-oxoacetamide] was less than 50 nM; that for `O=C(N[C@H](CN1CCCC1)[C@H](O)c1ccc(OC2CC2)c(Cl)c1)C(=O)c1ccc2oc3ccc(Br)cc3c2c1` [Example 302, 2-(8-bromodibenzo[b,d]furan-2-yl)-N-((1R,2R)-1-(3-chloro-4-cyclopropoxyphenyl)-1-hydroxy-3-(pyrrolidin-1-yl)propan-2-yl)-2-oxoacetamide] was less than 50 nM; that for `[2H]C([2H])(C(=O)N[C@H](CN1CCCC1)[C@H](O)c1ccc(OC2CC2)c(Cl)c1)c1ccc(-c2ccc(F)cc2)cc1` [Example 303, N-[(1R,2R)-2-(3-chloro-4-cyclopropoxyphenyl)-2-hydroxy-1-(pyrrolidinylmethyl)ethyl]-2-[4-(4-fluorophenyl)phenyl]acetamide] was less than 50 nM.
The figure for `O=C(N[C@H](CN1CCCC1)[C@H](O)c1ccc(OC2CC2)c(Cl)c1)C(=O)c1ccc2nn(Cc3ccc(F)cc3)cc2c1` [Example 304, N-((1R,2R)-1-(3-chloro-4-cyclopropoxyphenyl)-1-hydroxy-3-(pyrrolidin-1-yl)propan-2-yl)-2-(2-(4-fluorobenzyl)-2H-indazol-5-yl)-2-oxoacetamide] is less than 50 nM; for `O=C(N[C@H](CN1CCCC1)[C@H](O)c1cc(F)c2c(c1)OCCO2)C(=O)c1ccc2nn(Cc3ccc(F)cc3)cc2c1` [Example 305, N-((1R,2R)-1-(8-fluoro-2,3-dihydrobenzo[b][1,4]dioxin-6-yl)-1-hydroxy-3-(pyrrolidin-1-yl)propan-2-yl)-2-(2-(4-fluorobenzyl)-2H-indazol-5-yl)-2-oxoacetamide] it is less than 50 nM; for `CC(C)n1ncc2ccc(C(=O)C(=O)N[C@H](CN3CCCC3)[C@H](O)c3ccc(OC4CC4)c(Cl)c3)cc21` [Example 306, N-((1R,2R)-1-(3-chloro-4-cyclopropoxyphenyl)-1-hydroxy-3-(pyrrolidin-1-yl)propan-2-yl)-2-(1-isopropyl-1H-indazol-6-yl)-2-oxoacetamide] it is less than 50 nM.
The figure for `CC(C)n1ncc2ccc(C(=O)C(=O)N[C@H](CN3CCCC3)[C@H](O)c3cc(F)c4c(c3)OCCO4)cc21` [Example 307, N-((1R,2R)-1-(8-fluoro-2,3-dihydrobenzo[b][1,4]dioxin-6-yl)-1-hydroxy-3-(pyrrolidin-1-yl)propan-2-yl)-2-(1-isopropyl-1H-indazol-6-yl)-2-oxoacetamide] is less than 50 nM.
Regarding `O=C(N[C@H](CN1CCCC1)[C@H](O)c1cc(F)c2c(c1)OCCO2)C(=O)c1cc2ccc(Cl)cc2s1` [Example 308, 2-(6-chlorobenzo[b]thiophen-2-yl)-N-((1R,2R)-1-(8-fluoro-2,3-dihydrobenzo[b][1,4]dioxin-6-yl)-1-hydroxy-3-(pyrrolidin-1-yl)propan-2-yl)-2-oxoacetamide], the IC50 was less than 50 nM.
The value for `O=C(N[C@H](CN1CCCC1)[C@H](O)c1ccc(OC2CCCC2)c(Cl)c1)C(=O)c1ccc(-c2ccc(F)cc2)cc1` [Example 309, N-((1R,2R)-1-(3-chloro-4-(cyclopentyloxy)phenyl)-1-hydroxy-3-(pyrrolidin-1-yl)propan-2-yl)-2-(4′-fluoro-[1,1′-biphenyl]-4-yl)-2-oxoacetamide] was less than 50 nM.
The figure for `Cc1c2cc(-c3ccc(C(=O)C(=O)N[C@H](CN4CCCC4)[C@H](O)c4ccc(OC5CC5)c(Cl)c4)cc3)ccc2nn1C(C)C` [Example 310, N-((1R,2R)-1-(3-chloro-4-cyclopropoxyphenyl)-1-hydroxy-3-(pyrrolidin-1-yl)propan-2-yl)-2-(4-(2-isopropyl-3-methyl-2H-indazol-5-yl)phenyl)-2-oxoacetamide] is less than 50 nM; for `CC(C)n1cc2cc(C(=O)C(=O)N[C@H](CN3CCCC3)[C@H](O)c3ccc(OC4CC4)c(Cl)c3)ccc2n1` [Example 311, N-((1R,2R)-1-(3-chloro-4-cyclopropoxyphenyl)-1-hydroxy-3-(pyrrolidin-1-yl)propan-2-yl)-2-(2-isopropyl-2H-indazol-5-yl)-2-oxoacetamide] it is less than 50 nM; for `CC(C)n1cc2ccc(C(=O)C(=O)N[C@H](CN3CCCC3)[C@H](O)c3cc(F)c4c(c3)OCCO4)cc2n1` [Example 312, N-((1R,2R)-1-(8-fluoro-2,3-dihydrobenzo[b][1,4]dioxin-6-yl)-1-hydroxy-3-(pyrrolidin-1-yl)propan-2-yl)-2-(2-isopropyl-2H-indazol-6-yl)-2-oxoacetamide] it is less than 50 nM.
